One block for each compound: values may come before it. Calls of active or inactive are those of the source. The calls are words filed in the database; no cut-off is given here.
What was measured:
[1] = target: T1, Apelin receptor (Rattus norvegicus) (UniProt Q9JHG3); assay: Agonist activity at rat apelin receptor expressed in CHO cell membranes coexpressing EGFP assessed as receptor internalization at 100 uM after 20 mins by confocal microscopic analysis; assay type: cell-based
T1 sequence (whole entry): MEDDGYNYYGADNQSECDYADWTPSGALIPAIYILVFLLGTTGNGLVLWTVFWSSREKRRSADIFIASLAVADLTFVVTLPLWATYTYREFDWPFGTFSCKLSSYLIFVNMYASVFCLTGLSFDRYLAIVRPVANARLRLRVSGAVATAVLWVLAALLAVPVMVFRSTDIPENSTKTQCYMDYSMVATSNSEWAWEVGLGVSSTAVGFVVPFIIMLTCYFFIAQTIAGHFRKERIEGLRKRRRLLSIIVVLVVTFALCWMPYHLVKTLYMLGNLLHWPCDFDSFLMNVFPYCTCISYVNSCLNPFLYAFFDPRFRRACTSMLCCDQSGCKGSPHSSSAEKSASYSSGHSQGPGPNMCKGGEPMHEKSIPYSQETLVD

[2] = target: T2, Apelin receptor (Homo sapiens, UniProt P35414); assay: Displacement of [125I]-pE13F from human apelin receptor expressed in CHO cell membranes after 1 hr by gamma counting analysis
T2 sequence (P35414 whole entry): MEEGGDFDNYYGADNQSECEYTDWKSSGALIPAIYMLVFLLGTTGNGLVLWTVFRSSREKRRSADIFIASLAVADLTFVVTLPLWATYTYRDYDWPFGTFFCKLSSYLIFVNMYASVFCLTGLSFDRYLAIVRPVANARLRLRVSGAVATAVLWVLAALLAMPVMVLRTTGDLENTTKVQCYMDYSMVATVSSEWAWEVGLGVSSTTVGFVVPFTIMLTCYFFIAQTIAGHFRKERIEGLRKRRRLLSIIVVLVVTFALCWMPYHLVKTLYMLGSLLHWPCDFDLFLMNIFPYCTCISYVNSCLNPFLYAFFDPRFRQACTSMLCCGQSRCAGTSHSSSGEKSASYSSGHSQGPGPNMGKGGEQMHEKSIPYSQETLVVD

[3] = target: T3, Type-1 angiotensin II receptor (Homo sapiens, UniProt P30556); assay: Displacement of [125I]-angiotensin 2 from human angiotensin 2 type-1 receptor expressed in CHO cell membranes after 1 hr by gamma counting analysis
T3 sequence (P30556 whole entry): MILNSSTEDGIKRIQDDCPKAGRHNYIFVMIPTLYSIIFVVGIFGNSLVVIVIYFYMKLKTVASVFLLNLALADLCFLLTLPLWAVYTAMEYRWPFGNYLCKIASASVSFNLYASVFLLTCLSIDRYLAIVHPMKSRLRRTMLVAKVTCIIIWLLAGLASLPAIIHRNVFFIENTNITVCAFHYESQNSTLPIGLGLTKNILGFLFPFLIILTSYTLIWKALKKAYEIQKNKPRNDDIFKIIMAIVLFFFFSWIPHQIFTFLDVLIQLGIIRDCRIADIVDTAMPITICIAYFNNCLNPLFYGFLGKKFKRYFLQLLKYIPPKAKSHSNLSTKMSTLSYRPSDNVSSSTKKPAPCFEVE

[4] = target: T1, Apelin receptor (Rattus norvegicus); assay: (§1) Agonist activity at rat apelin receptor expressed in CHO cell membranes coexpressing EGFP assessed as inhibition of forskolin-induced cAMP production after 30 mins by fluorescence analysis; assay type: functional, cell-based
[5] = target: T4, Apelin receptor (Rattus norvegicus, UniProt Q9JHG3); assay: as §1; assay type: functional, cell-based
T4 sequence (Q9JHG3 whole entry): T1 sequence (whole entry)

[6] = target: T1, Apelin receptor (Rattus norvegicus); assay: Agonist activity at rat apelin receptor expressed in CHO cell membranes coexpressing EGFP assessed as inhibition of forskolin-induced cAMP production after 30 mins by fluorescence analysis relative to control; assay type: functional, cell-based
[7] = Half life in mouse plasma at 5 uM at 37 degC by LC-MS analysis; assay type: ADME, cell-free
[8] = Dissociation constant, pKa of the compound in water at 2 mM by potentiometric titration analysis; assay type: physicochemical
[9] = target: T1, Apelin receptor (Rattus norvegicus); assay: Agonist activity at rat apelin receptor expressed in CHO cell membranes coexpressing EGFP assessed as receptor internalization at 100 nM after 20 mins by confocal microscopic analysis; assay type: cell-based

SMILES: CCN(CC)c1ccc2c(-c3ccc(S(=O)(=O)NCCCC[C@H](NC(=O)Cc4csc(=N)n4C)C(=O)N[C@@H](Cc4cn(Cc5ccccc5)c[n+]4C)C(=O)NC4CCN(C)CC4)cc3S(=O)(=O)[O-])c3ccc(=[N+](CC)CC)cc-3oc2c1.O=C(O)C(F)(F)F.O=C(O)C(F)(F)F.O=C([O-])C(F)(F)F
Activity [1]: Active | Ki [2]: 0.4 µM | Ki [3]: > 1000 µM | inhibition [4]: Dose-dependent effect | IC50 [5]: 3 µM | Imax [6]: 77% | half-life at 5 µM [7]: > 10 h

SMILES: CCN(CC)c1ccc(C(=C2C=CC(=[N+](CC)CC)C=C2)c2ccc(S(=O)(=O)NCCCC[C@H](NC(=O)Cc3csc(=N)n3C)C(=O)N[C@@H](Cc3cn(Cc4ccccc4)c[n+]3C)C(=O)NC3CCN(C)CC3)cc2S(=O)(=O)[O-])cc1.O=C(O)C(F)(F)F.O=C(O)C(F)(F)F.O=C([O-])C(F)(F)F
Activity [1]: inactive | Ki [2]: 0.089 µM | Ki [3]: 98 µM | inhibition [4]: Dose-dependent effect | IC50 [5]: 1.7 µM | Imax [6]: 69% | half-life at 5 µM [7]: > 10 h

SMILES: COC(=O)Cc1csc(N)n1
pKa at 2000 µM [8]: 4.83

SMILES: CCN(CC)c1ccc2c(-c3ccc(S(=O)(=O)NCCCCCCCCCCCCNC(=O)NCCCC[C@H](NC(=O)Cc4csc(=N)[nH]4)C(=O)N[C@@H](Cc4cn(Cc5ccccc5)cn4)C(=O)NC4CCN(C)CC4)cc3S(=O)(=O)[O-])c3ccc(=[N+](CC)CC)cc-3oc2c1
Ki [2]: 9 µM

SMILES: CCN(CC)c1ccc2c(-c3ccc(S(=O)(=O)NCCCC[C@H](NC(=O)Cc4csc(=N)n4C)C(=O)N[C@@H](C)C(=O)NC4CCN(C)CC4)cc3S(=O)(=O)[O-])c3ccc(=[N+](CC)CC)cc-3oc2c1
Activity [1]: inactive | Ki [2]: 0.45 µM

SMILES: CCN(CC)c1ccc2c(-c3ccc(S(=O)(=O)NCCCC[C@H](NC(=O)Cc4csc(=N)n4C)C(=O)N[C@@H](Cc4cn(Cc5ccccc5)c[n+]4C)C(=O)N[C@@H](C)C(N)=O)cc3S(=O)(=O)O)c3ccc(=[N+](CC)CC)cc-3oc2c1
Ki [2]: 0.97 µM

SMILES: CCN(CC)c1ccc2c(-c3ccc(S(=O)(=O)NCCCCCCCCCCCCNC(=O)NCCCC[C@H](NC(=O)Cc4csc(=N)n4C)C(=O)N[C@@H](Cc4cn(Cc5ccccc5)cn4)C(=O)NC4CC[N+](C)(C)CC4)cc3S(=O)(=O)O)c3ccc(=[N+](CC)CC)cc-3oc2c1
Ki [2]: 3 µM

SMILES: COC(=O)Cc1csc(=N)n1C
pKa at 2000 µM [8]: 9.77

SMILES: CC(=O)NCCCC[C@H](NC(=O)Cc1csc(=N)n1C)C(=O)N[C@@H](Cc1cn(Cc2ccccc2)c[n+]1C)C(=O)NC1CCN(C)CC1
Ki [2]: > 100 µM

SMILES: CCN(CC)c1ccc2c(-c3ccc(S(=O)(=O)NCCCC[C@H](NC(=O)Cc4csc(=N)n4C)C(=O)N[C@@H](Cc4cn(Cc5ccccc5)c[n+]4C)C(=O)NC4CCN(Cc5ccccc5)CC4)cc3S(=O)(=O)[O-])c3ccc(=[N+](CC)CC)cc-3oc2c1
Activity [1]: Active | Ki [2]: 0.27 µM

SMILES: CCN(CC)c1ccc2c(-c3ccc(S(=O)(=O)NCCCCCCCCCCCCNC(=O)NCCCC[C@H](NC(=O)Cc4csc(=N)n4C)C(=O)N[C@@H](Cc4cn(Cc5ccccc5)cn4)C(=O)NC4CCN(C)CC4)cc3S(=O)(=O)[O-])c3ccc(=[N+](CC)CC)cc-3oc2c1
Ki [2]: 1.5 µM

SMILES: CCN(CC)c1ccc2c(-c3ccc(S(=O)(=O)NCCCC[C@H](NC(=O)Cc4csc(=N)[nH]4)C(=O)N[C@@H](Cc4cn(Cc5ccccc5)c[n+]4C)C(=O)NC4CCN(C)CC4)cc3S(=O)(=O)[O-])c3ccc(=[N+](CC)CC)cc-3oc2c1
Activity [1]: inactive | Ki [2]: 0.85 µM

SMILES: CCN(CC)c1ccc2c(-c3ccc(S(=O)(=O)NCCCC[C@H](NC(=O)Cc4csc(=N)n4C)C(=O)N[C@@H](Cc4cn(Cc5ccccc5)cn4)C(=O)NC4CCN(C)CC4)cc3S(=O)(=O)[O-])c3ccc(=[N+](CC)CC)cc-3oc2c1
Activity [1]: Active | Ki [2]: 0.96 µM

SMILES: CSCC[C@H](NC(=O)[C@@H]1CCCN1C(=O)CNC(=O)[C@H](CCCCN)NC(=O)[C@H](Cc1cnc[nH]1)NC(=O)[C@H](CO)NC(=O)[C@H](CC(C)C)NC(=O)[C@H](CCCNC(=N)N)NC(=O)[C@@H]1CCCN1C(=O)[C@H](CCCNC(=N)N)NC(=O)[C@H](CCC(N)=O)NC(=O)[C@H](CCCNC(=N)N)NC(=O)[C@H](CCCNC(=N)N)NC(=O)[C@H](Cc1ccccc1)NC(=O)[C@@H](N)CCCCN)C(=O)N1CCC[C@H]1C(=O)N[C@@H](Cc1ccccc1)C(=O)O
Activity [9]: Active | Ki [3]: > 100 µM | inhibition [4]: Dose-dependent effect | IC50 [5]: 0.0014 µM | Imax [6]: 85% | half-life at 5 µM [7]: 0.0767 h

SMILES: CCN(CC)c1ccc2c(-c3ccc(S(=O)(=O)NCCCCCCCCCCCCNC(=O)NCCCC[C@H](NC(=O)Cc4csc(=N)n4C)C(=O)N[C@@H](Cc4cn(Cc5ccccc5)c[n+]4C)C(=O)NC4CC[N+](C)(C)CC4)cc3S(=O)(=O)O)c3ccc(=[N+](CC)CC)cc-3oc2c1
Ki [2]: 1.4 µM

Further lines, results first:

Ki [2]: > 100 µM
SMILES: CCN(CC)c1ccc2c(-c3ccc(S(=O)(=O)NCCCCNCCCC[C@H](NC(=O)Cc4csc(=N)n4C)C(=O)N[C@@H](Cc4cn(Cc5ccccc5)c[n+]4C)C(=O)NC4CCN(C)CC4)cc3S(=O)(=O)O)c3ccc(=[N+](CC)CC)cc-3oc2c1

Activity [1]: Active | inhibition [4]: Dose-dependent effect | Imax [6]: 100%
SMILES: CCN(CC)c1ccc2c(-c3ccc(S(=O)(=O)NCCCCCCCCCCCCNC(=O)NCCCC[C@H](NC(=O)Cc4csc(=N)n4C)C(=O)N[C@@H](Cc4cn(Cc5ccccc5)c[n+]4C)C(=O)NC4CCN(C)CC4)cc3S(=O)(=O)[O-])c3ccc(=[N+](CC)CC)cc-3oc2c1

Activity [1]: Active | Ki [2]: 0.18 µM
SMILES: CCN(CC)c1ccc2c(-c3ccc(S(=O)(=O)NCCCC[C@H](NC(=O)Cc4csc(=N)n4C)C(=O)N[C@@H](Cc4cn(Cc5ccccc5)c[n+]4C)C(=O)NCC4CCN(C)CC4)cc3S(=O)(=O)[O-])c3ccc(=[N+](CC)CC)cc-3oc2c1

Ki [2]: 1.2 µM
SMILES: CCN(CC)c1ccc2c(-c3ccc(S(=O)(=O)NCCCC[C@H](NC(C)=O)C(=O)N[C@@H](Cc4cn(Cc5ccccc5)c[n+]4C)C(=O)NC4CCN(C)CC4)cc3S(=O)(=O)O)c3ccc(=[N+](CC)CC)cc-3oc2c1

Activity [1]: inactive | Ki [2]: 0.98 µM
SMILES: CCN(CC)c1ccc2c(-c3ccc(S(=O)(=O)NCCCC[C@H](NC(=O)Cc4csc(=N)n4C)C(=O)N[C@@H](Cc4cn(Cc5ccccc5)c[n+]4C)C(=O)NC4CCOCC4)cc3S(=O)(=O)[O-])c3ccc(=[N+](CC)CC)cc-3oc2c1

Ki [2]: 0.43 µM
SMILES: CCN(CC)c1ccc2c(-c3ccc(S(=O)(=O)NCCCCCCCCCCCCNC(=O)NCCCC[C@H](NC(=O)Cc4csc(=N)n4C)C(=O)N[C@@H](Cc4cn(Cc5ccccc5)c[n+]4C)C(=O)NC4CCN(C)CC4)cc3S(=O)(=O)O)c3ccc(=[N+](CC)CC)cc-3oc2c1 [listing 1 of 2 here]

Activity [1]: Active | Ki [2]: 0.31 µM
SMILES: CCN(CC)c1ccc2c(-c3ccc(S(=O)(=O)NCCCCCCNC(=O)NCCCC[C@H](NC(=O)Cc4csc(=N)n4C)C(=O)N[C@@H](Cc4cn(Cc5ccccc5)c[n+]4C)C(=O)NC4CCN(C)CC4)cc3S(=O)(=O)[O-])c3ccc(=[N+](CC)CC)cc-3oc2c1

Ki [2]: 0.69 µM | Ki [3]: 2.23 µM | IC50 [5]: 4.3 µM | half-life at 5 µM [7]: > 10 h
SMILES: CCN(CC)c1ccc2c(-c3ccc(S(=O)(=O)NCCCCCCCCCCCCNC(=O)NCCCC[C@H](NC(=O)Cc4csc(=N)n4C)C(=O)N[C@@H](Cc4cn(Cc5ccccc5)c[n+]4C)C(=O)NC4CCN(C)CC4)cc3S(=O)(=O)O)c3ccc(=[N+](CC)CC)cc-3oc2c1 [listing 2 of 2 here]

From ChEMBL document CHEMBL3232849, “Structure-activity relationship studies toward the discovery of selective apelin receptor agonists” (J Med Chem, 2014)
